Source: the NIST ThermoML archive (doi:10.1007/s10765-010-0766-0)
Numbers after ± are expanded uncertainties.

Assay: wn = mass fraction of the nth substance listed
Settings: Liquid, Pycnometric method, w2 = 0.4981

FC(F)C(F)(F)F [pentafluoroethane] + FCF
Settings | mass density [kg/m3]
376.15 K, 13702 kPa | 772.3 ± 1.3
376.15 K, 13709 kPa | 772.3 ± 1.3
376.15 K, 23359 kPa | 917.3 ± 1.5
376.15 K, 23375 kPa | 917.3 ± 1.5
376.15 K, 23406 kPa | 917.5 ± 1.5
377.15 K, 13950 kPa | 772.3 ± 1.3
377.15 K, 13957 kPa | 772.2 ± 1.3
377.15 K, 23734 kPa | 917.2 ± 1.5
377.15 K, 23750 kPa | 917.2 ± 1.5
377.15 K, 23780 kPa | 917.4 ± 1.5
378.15 K, 14198 kPa | 772.2 ± 1.3
378.15 K, 14205 kPa | 772.2 ± 1.3
378.15 K, 24109 kPa | 917.1 ± 1.5
378.15 K, 24125 kPa | 917.1 ± 1.5
378.15 K, 24155 kPa | 917.3 ± 1.5
379.15 K, 14447 kPa | 772.2 ± 1.3
379.15 K, 14454 kPa | 772.1 ± 1.3
379.15 K, 24484 kPa | 917 ± 1.5
379.15 K, 24500 kPa | 917 ± 1.5
379.15 K, 24531 kPa | 917.2 ± 1.5
380.15 K, 14696 kPa | 772.1 ± 1.3
380.15 K, 14702 kPa | 772 ± 1.3
380.15 K, 24858 kPa | 916.9 ± 1.5
380.15 K, 24875 kPa | 916.9 ± 1.5
380.15 K, 24906 kPa | 917.1 ± 1.5
381.15 K, 14944 kPa | 772.1 ± 1.3
381.15 K, 14951 kPa | 772 ± 1.3
381.15 K, 25233 kPa | 916.8 ± 1.5
381.15 K, 25250 kPa | 916.8 ± 1.5
381.15 K, 25282 kPa | 917 ± 1.5
382.15 K, 15194 kPa | 772 ± 1.3
382.15 K, 15200 kPa | 771.9 ± 1.3
382.15 K, 25608 kPa | 916.7 ± 1.5
382.15 K, 25625 kPa | 916.7 ± 1.5
382.15 K, 25657 kPa | 916.9 ± 1.5
383.15 K, 15443 kPa | 772 ± 1.3
383.15 K, 15449 kPa | 771.8 ± 1.3
383.15 K, 25983 kPa | 916.6 ± 1.5
383.15 K, 26000 kPa | 916.6 ± 1.5
383.15 K, 26033 kPa | 916.8 ± 1.5
384.15 K, 15692 kPa | 771.9 ± 1.3
384.15 K, 15699 kPa | 771.8 ± 1.3
384.15 K, 26358 kPa | 916.5 ± 1.5
384.15 K, 26375 kPa | 916.5 ± 1.5
384.15 K, 26408 kPa | 916.7 ± 1.5
385.15 K, 15942 kPa | 771.8 ± 1.3
385.15 K, 15948 kPa | 771.7 ± 1.3
385.15 K, 26733 kPa | 916.4 ± 1.5
385.15 K, 26750 kPa | 916.5 ± 1.5
385.15 K, 26784 kPa | 916.6 ± 1.5
386.15 K, 16192 kPa | 771.8 ± 1.3
386.15 K, 16198 kPa | 771.7 ± 1.3
386.15 K, 27107 kPa | 916.3 ± 1.5
386.15 K, 27125 kPa | 916.4 ± 1.5
386.15 K, 27159 kPa | 916.6 ± 1.5
387.15 K, 16442 kPa | 771.7 ± 1.3
387.15 K, 16448 kPa | 771.6 ± 1.3
387.15 K, 27482 kPa | 916.2 ± 1.5
387.15 K, 27500 kPa | 916.3 ± 1.5
387.15 K, 27533 kPa | 916.5 ± 1.5
388.15 K, 16692 kPa | 771.6 ± 1.3
388.15 K, 16698 kPa | 771.5 ± 1.3
388.15 K, 27856 kPa | 916.1 ± 1.5
388.15 K, 27874 kPa | 916.2 ± 1.5
388.15 K, 27907 kPa | 916.4 ± 1.5
389.15 K, 16942 kPa | 771.6 ± 1.3
389.15 K, 16948 kPa | 771.5 ± 1.3
389.15 K, 28231 kPa | 916 ± 1.5
389.15 K, 28249 kPa | 916.1 ± 1.5
389.15 K, 28282 kPa | 916.3 ± 1.5
390.15 K, 17192 kPa | 771.5 ± 1.3
390.15 K, 17198 kPa | 771.4 ± 1.3
390.15 K, 28605 kPa | 915.9 ± 1.5
390.15 K, 28624 kPa | 916 ± 1.5
390.15 K, 28657 kPa | 916.2 ± 1.5
391.15 K, 17442 kPa | 771.4 ± 1.3
391.15 K, 17448 kPa | 771.3 ± 1.3
391.15 K, 28979 kPa | 915.8 ± 1.5
391.15 K, 28998 kPa | 915.9 ± 1.5
391.15 K, 29032 kPa | 916.1 ± 1.5
392.15 K, 17692 kPa | 771.4 ± 1.3
392.15 K, 17698 kPa | 771.3 ± 1.3
392.15 K, 29354 kPa | 915.7 ± 1.5
392.15 K, 29373 kPa | 915.8 ± 1.5
392.15 K, 29407 kPa | 916 ± 1.5
393.15 K, 17943 kPa | 771.3 ± 1.3
393.15 K, 17949 kPa | 771.2 ± 1.3
393.15 K, 29728 kPa | 915.6 ± 1.5
393.15 K, 29782 kPa | 915.9 ± 1.5
394.15 K, 18193 kPa | 771.3 ± 1.3
394.15 K, 18199 kPa | 771.1 ± 1.3
395.15 K, 18444 kPa | 771.2 ± 1.3
395.15 K, 18450 kPa | 771.1 ± 1.3
396.15 K, 18701 kPa | 771 ± 1.3
397.15 K, 18951 kPa | 770.9 ± 1.3
